Assay results: article PMC6257473, “Artificial Self-Sufficient P450 in Reversed Micelles” (Molecules, 2010)

Biological target: T1, A. pernix ADH (Aeropyrum pernix, UniProt Q9Y9P9)
T1 construct: heat treatment, DEAE Sepharose and Superdex 200
T1 sequence (Q9Y9P9 1-344): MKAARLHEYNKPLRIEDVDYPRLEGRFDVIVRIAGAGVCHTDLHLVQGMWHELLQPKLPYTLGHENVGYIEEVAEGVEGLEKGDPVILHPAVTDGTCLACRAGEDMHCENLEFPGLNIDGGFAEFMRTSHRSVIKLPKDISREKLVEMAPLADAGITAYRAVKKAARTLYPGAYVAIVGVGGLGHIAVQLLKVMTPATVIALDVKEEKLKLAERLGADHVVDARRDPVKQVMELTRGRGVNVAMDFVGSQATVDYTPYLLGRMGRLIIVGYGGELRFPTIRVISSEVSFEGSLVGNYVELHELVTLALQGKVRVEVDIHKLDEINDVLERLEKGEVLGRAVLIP
Experiment: NADH formation, initial rate
Type: biochemical
Conditions: 70 μM NAD+, 25 °C

`CCCC(C)O` (centres unmarked) [2-pentanol] was tested, and the “NADH formation, initial rate” value (aqueous, 50 mM potassium phosphate pH 7.4, 150 mM KCl, 1.2 μM enzyme, substrate activation) was “substrate activation was also observed when using 2-pentanol as a substrate in water”.
In the case of `NC(=O)c1ccc[n+]([C@@H]2O[C@H](COP(=O)(O)OP(=O)(O)OC[C@H]3O[C@@H](n4cnc5c(N)ncnc54)[C@H](O)[C@@H]3O)[C@@H](O)[C@H]2O)c1` [NAD^+], the “NADH formation, initial rate” value (CTAB/2-pentanol/isooctane reversed micelles, W0 16.7, 2-pentanol as co-substrate) is reported as “A. pernix ADH showed NAD^+ reduction activity in a CTAB/2-pentanol/isooctane reversed micellar system”.
